# Data published in paper PMC6855808, “Direct binding of phosphatidylglycerol at specific sites modulates desensitization of a ligand-gated ion channel” (eLife, 2019).
# “And” between values parts separate entries of the source, which are not always exact repeats. Identical values can stand only once. Like-named read-outs stand apart in the source and are kept apart here.
# B1: Erwinia ligand-gated ion channel (ELIC), wild type (natural protein, Erwinia chrysanthemi, UniProt P0C7B7 1-321, looked up)
# chain: APADNAADARPVDVSVSIFINKIYGVNTLEQTYKVDGYIVAQWTGKPRKTPGDKPLIVENTQIERWINNGLWVPALEFINVVGSPDTGNKRLMLFPDGRVIYNARFLGSFSNDMDFRLFPFDRQQFVLELEPFSYNNQQLRFSDIQVYTENIDNEEIDEWWIRKASTHISDIRYDHLSSVQPNQNEFSRITVRIDAVRNPSYYLWSFILPLGLIIAASWSVFWLESFSERLQTSFTLMLTVVAYAFYTSNILPRLPYTTVIDQMIIAGYGSIFAAILLIIFAHHRQAMGVEDDLLIQRCRLAFPLGFLAIGCVLVIRGITL
# notes: Erwinia ligand-gated ion channel (ELIC), a pentameric ligand-gated ion channel of Erwinia chrysanthemi; expressed from pET26-MBP-ELIC (Addgene plasmid 39239); MBP was removed with HRV-3C protease before size exclusion; also called ELIC WT; WT; source: OverExpress C43 (DE3) E. coli, purified (membranes solubilized in DDM, amylose resin, HRV-3C digestion, size exclusion)
# Legend:
# ELIC WT [1] = assay: Sequential-mixing stopped-flow fluorescence Tl+ flux assay in liposomes; format: biochemical, Erwinia chrysanthemi; conditions: 5 mM cysteamine
# ELIC WT [2] = assay: Native MS phospholipid binding to delipidated ELIC in C10E5; set-up: species or system Erwinia chrysanthemi; conditions: binomial binding model, 32 sites of equal affinity; 1 μM ELIC in C10E5; read-out: Dissociation constant K
# Experimental: Native MS analysis was similar to previous descriptions for other membrane proteins ([Gault et al., 2016]). For analysis of ELIC in DDM, 30 μl of purified protein in 0.02% DDM at ~1 mg/ml was buffer exchanged into 200 mM ammonium acetate pH 7.5% and 0.02% DDM using Biospin six gel filtration spin columns (Bio-Rad, Hercules, CA). 2 μl of buffer exchanged ELIC was loaded into a borosilicate capillary emitter (Thermo Scientific, Waltham, MA), and analyzed by static nanospray on a Thermo QExactive EMR mass spectrometer. The following parameters were used to resolve the ELIC pentamer and minimize dissociation into tetramer and monomer: capillary voltage of 1.2 kV, capillary temperature of 200°C, ion transfer optics set with the injection flatapole, inter-flatapole lens, bent flatapole, transfer multiple as 8, 7, 6, 4 V, respectively, resolution 8,750, AGC target 3 × 10^6, trap pressure set to maximum, CID 200 V, and CE 100 V. For analysis of ELIC in C10E5, ELIC delipidated by injecting 300 μg onto a Sephadex 200 10/300 column (GE Healthcare) at 0.5 ml/min pre-equilibrated with Buffer A, 10% glycerol, and 0.06% C10E5 (Anatrace). 30 μl aliquots were then buffer exchanged to 100 mM ammonium acetate pH 7.5, 0.06% C10E5 using Biospin six columns, and diluted to 0.2 mg/ml. MS measurements on the QExactive EMR were performed with the parameters listed above except: capillary temperature 100°C, CID 75 V and CE 200 V. For lipid binding measurements, stocks of POPG lipid were prepared at 2× the concentration of POPG being tested in 100 mM ammonium acetate pH 7.5% and 0.06% C10E5. Lipid stocks were then mixed with 0.4 mg/ml ELIC in a 1:1 vol ratio for a final concentration of 1 μM ELIC, and samples were analyzed after >5 min incubation.
# MS spectra were deconvoluted using UniDec ([Marty et al., 2015]); deconvolution of spectra with bound lipid was restricted to the 26+ to 22+ charge states (Figure 1—figure supplement 3). Peak heights of apo and lipid-bound species were extracted from UniDec, and analyzed by two approaches. The average number of bound lipids was determined by the following relationship:(1) Averagenumberboundlipid=∑n=0kn\cdot In/∑n=0kIn where n is the number of bound lipids and In is the deconvoluted peak height of ELIC with n bound lipids. Peak heights of apo and lipid-bound species were also plotted as mole fraction versus the number of bound lipids (Figure 1—figure supplement 4).
# Then, the probability (B) that q sites are occupied out of N total sites is given by the binomial probability function:(3) Bq=N!/q!N-q!p^N-q(1-p)^q
# B(q) was used to determine the mole fraction of each lipid-bound species at a given [A], which was used to fit the native MS data in Excel across all [A] by setting K constant and varying N or vice versa.
# ELIC WT [3] = assay: Thermal stability assay (SEC pentamer peak after heating); format: binding, Erwinia chrysanthemi; conditions: 1 μM ELIC in C10E5, 32°C for 15 min
# Experimental: Purified WT ELIC in C10E5 (Buffer A, 0.06% C10E5) was diluted to 1 μM in the absence or presence of various concentrations of phospholipid. Samples were analyzed without and with heating in the absence or presence of phospholipid. […] The stabilizing effect of a phospholipid was quantified as the pentamer amplitude in the presence of phospholipid (heated) divided by control (heated).
# ELIC L238A = target: T1, ELIC L238A (Dickeya chrysanthemi, UniProt P0C7B7, L237A); assay: Excised patch-clamp recordings from giant liposomes; format: biochemical, Erwinia chrysanthemi; conditions: 25 mole% POPG
# T1 construct: MBP (N, cleaved yes); made in house; host or cells: OverExpress C43 (DE3) E. coli
# ELIC R286Q = target: T2, ELIC R286Q (Dickeya chrysanthemi, UniProt P0C7B7, R285Q); assay: as above; format: biochemical, Erwinia chrysanthemi; conditions: 25 mole% POPG
# T2 construct: MBP (N, cleaved yes); made in house; host or cells: OverExpress C43 (DE3) E. coli
# ELIC R123Q/R299Q = target: T3, ELIC R123Q/R299Q (Dickeya chrysanthemi, UniProt P0C7B7, R123Q/R298Q); assay: as above; format: biochemical, Erwinia chrysanthemi; conditions: 25 mole% POPG
# T3 construct: MBP (N, cleaved yes); made in house; host or cells: OverExpress C43 (DE3) E. coli
# ELIC R299Q = target: T4, ELIC R299Q (Dickeya chrysanthemi, UniProt P0C7B7, R298Q); assay: as above; format: biochemical, Erwinia chrysanthemi; conditions: 25 mole% POPG
# T4 construct: MBP (N, cleaved yes); made in house; host or cells: OverExpress C43 (DE3) E. coli
# ELIC WT [4] = assay: as above; conditions: for EC50: read-out: Dose response EC50 (mM cysteamine), peak current, 0.5 mM BaCl2
# ELIC R301Q = target: T5, ELIC R301Q (Dickeya chrysanthemi, UniProt P0C7B7, R300Q); assay: as above; format: biochemical, Erwinia chrysanthemi; conditions: 25 mole% POPG
# T5 construct: MBP (N, cleaved yes); made in house; host or cells: OverExpress C43 (DE3) E. coli
# ELIC R123Q = target: T6, ELIC R123Q (Dickeya chrysanthemi, UniProt P0C7B7, INS163G/R123Q); assay: as above; format: biochemical, Erwinia chrysanthemi; conditions: 25 mole% POPG
# T6 construct: MBP (N, cleaved yes); made in house; host or cells: OverExpress C43 (DE3) E. coli
# ELIC R286Q/R299Q = target: T7, ELIC R286Q/R299Q (Dickeya chrysanthemi, UniProt P0C7B7, R285Q/R298Q); assay: as above; format: biochemical, Erwinia chrysanthemi; conditions: 25 mole% POPG
# T7 construct: MBP (N, cleaved yes); made in house; host or cells: OverExpress C43 (DE3) E. coli
# ELIC R301Q/R299Q = target: T8, ELIC R301Q/R299Q (Dickeya chrysanthemi, UniProt P0C7B7, R298Q/R300Q); assay: as above; format: biochemical, Erwinia chrysanthemi; conditions: 25 mole% POPG
# T8 construct: MBP (N, cleaved yes); made in house; host or cells: OverExpress C43 (DE3) E. coli
# ELIC R117Q = target: T9, ELIC R117Q (Dickeya chrysanthemi, UniProt P0C7B7, INS163G/R117Q); assay: as above; format: biochemical, Erwinia chrysanthemi; conditions: 25 mole% POPG
# T9 construct: MBP (N, cleaved yes); made in house; host or cells: OverExpress C43 (DE3) E. coli
# ELIC R117Q/R299Q = target: T10, ELIC R117Q/R299Q (Dickeya chrysanthemi, UniProt P0C7B7, R117Q/R298Q); assay: as above; format: biochemical, Erwinia chrysanthemi; conditions: 25 mole% POPG
# T10 construct: MBP (N, cleaved yes); made in house; host or cells: OverExpress C43 (DE3) E. coli
# [5] = target: the molecule itself; assay: native MS; ELIC purified in 0.02% DDM, buffer exchanged into 200 mM ammonium acetate pH 7.5, 0.02% DDM; static nanospray, Q-Exactive EMR, CID 200 V, CE 100 V; co-purified lipids bound
# [6] = read-out: Cysteamine response EC50
molecule,measurement,setting,value
"CCCCCCCC/C=C\CCCCCCCC(=O)O[C@H](COC(=O)CCCCCCCCCCCCCCC)COP(=O)([O-])OCC[N+](C)(C)C [POPC, 1-palmitoyl-2-oleoyl-phosphatidylcholine]",Fold faster rate of desensitization in POPC liposomes vs POPC:POPE:POPG liposomes,ELIC WT [1],more than 20 fold
same,Activation τ,"ELIC WT [1]; liposome composition as labelled, double exponential fit, fast component",39 ± 17 ms
same,Desensitization τ,"ELIC WT [1]; liposome composition as labelled, double exponential fit, slow component",0.42 ± 0.05 s
same,Kd,ELIC WT [2],0.28 mM
same,Effect on ELIC stability against thermal denaturation,ELIC WT [3],no effect
"CCCCCCCC/C=C\CCCCCCCC(=O)O[C@H](COC(=O)CCCCCCCCCCCCCCC)COP(=O)(O)OCCN [POPE, 1-palmitoyl-2-oleoyl-phosphatidylethanolamine]",Kd,ELIC WT [2],0.19 mM
same,Effect on ELIC stability against thermal denaturation,ELIC WT [3],no effect
NCCS [cysteamine],Activation τ,ELIC L238A; 30 mM cysteamine,113 ± 51 ms
same,Desensitization norm current at 20 s,ELIC L238A; 30 mM cysteamine,0.374 ± 0.045
same,Desensitization weighted τ,ELIC L238A; 30 mM cysteamine,5.90 ± 1.37 s
same,EC50,ELIC L238A; [6],4.9 ± 1.1 mM
same,Activation τ,ELIC R286Q; 30 mM cysteamine,106 ± 34 ms
same,Desensitization norm current at 20 s,ELIC R286Q; 30 mM cysteamine,0.091 ± 0.023
same,Desensitization weighted τ,ELIC R286Q; 30 mM cysteamine,1.67 ± 0.24 s
same,EC50,ELIC R286Q; [6],4.3 ± 0.4 mM
same,Activation τ,ELIC R123Q/R299Q; 30 mM cysteamine,74 ± 35 ms
same,Desensitization norm current at 20 s,ELIC R123Q/R299Q; 30 mM cysteamine,0.041 ± 0.005
same,Desensitization weighted τ,ELIC R123Q/R299Q; 30 mM cysteamine,1.66 ± 0.17 s
same,EC50,ELIC R123Q/R299Q; [6],3.7 ± 0.6 mM
same,Activation τ,ELIC R299Q; 30 mM cysteamine,71 ± 27 ms
same,Desensitization norm current at 20 s,ELIC R299Q; 30 mM cysteamine,0.074 ± 0.008
same,Desensitization weighted τ,ELIC R299Q; 30 mM cysteamine,2.2 ± 0.17 s
same,EC50,ELIC R299Q; [6],4.7 ± 0.3 mM
same,Activation τ,"ELIC WT [4]; 25 mole% POPG, 30 mM cysteamine",134 ms and 134 ± 50 ms
same,Desensitization norm current at 20 s,"ELIC WT [4]; 25 mole% POPG, 30 mM cysteamine, normalized to peak response",0.100 ± 0.041
same,EC50,ELIC WT [4]; 12 mole% POPG,5.3 ± 1 mM
same,EC50,ELIC WT [4]; 25 mole% POPG,5.1 ± 1.2 mM
same,EC50,ELIC WT [4]; 40 mole% POPG,6.5 ± 1.3 mM
same,Activation τ,ELIC R301Q; 30 mM cysteamine,72 ± 15 ms
same,Desensitization norm current at 20 s,ELIC R301Q; 30 mM cysteamine,0.045 ± 0.017
same,Desensitization weighted τ,ELIC R301Q; 30 mM cysteamine,0.66 ± 0.28 s
same,EC50,ELIC R301Q; [6],5.2 ± 0.8 mM
same,Activation τ,ELIC R123Q; 30 mM cysteamine,112 ± 65 ms
same,Desensitization norm current at 20 s,ELIC R123Q; 30 mM cysteamine,0.067 ± 0.015
same,Desensitization weighted τ,ELIC R123Q; 30 mM cysteamine,1.20 ± 0.39 s
same,EC50,ELIC R123Q; [6],3.7 ± 0.9 mM
same,Activation τ,ELIC R286Q/R299Q; 30 mM cysteamine,92 ± 27 ms
same,Desensitization norm current at 20 s,ELIC R286Q/R299Q; 30 mM cysteamine,0.103 ± 0.032
same,Desensitization weighted τ,ELIC R286Q/R299Q; 30 mM cysteamine,2.08 ± 0.65 s
same,EC50,ELIC R286Q/R299Q; [6],4.7 ± 1.5 mM
same,Activation τ,ELIC R301Q/R299Q; 30 mM cysteamine,71 ± 21 ms
same,Desensitization norm current at 20 s,ELIC R301Q/R299Q; 30 mM cysteamine,0.030 ± 0.017
same,Desensitization weighted τ,ELIC R301Q/R299Q; 30 mM cysteamine,0.45 ± 0.28 s
same,EC50,ELIC R301Q/R299Q; [6],3.9 ± 0.9 mM
same,Activation τ,ELIC R117Q; 30 mM cysteamine,54 ± 40 ms
same,Desensitization norm current at 20 s,ELIC R117Q; 30 mM cysteamine,0.060 ± 0.020
same,Desensitization weighted τ,ELIC R117Q; 30 mM cysteamine,1.49 ± 0.40 s
same,EC50,ELIC R117Q; [6],3.3 ± 0.9 mM
same,Activation τ,ELIC R117Q/R299Q; 30 mM cysteamine,54 ± 26 ms
same,Desensitization norm current at 20 s,ELIC R117Q/R299Q; 30 mM cysteamine,0.025 ± 0.004
same,Desensitization weighted τ,ELIC R117Q/R299Q; 30 mM cysteamine,1.13 ± 0.24 s
same,EC50,ELIC R117Q/R299Q; [6],2.4 ± 0.7 mM
B1,stoichiometry N,[5],5
